One substance from patent US10899795B2, “Modified epitopes for boosting CD4+ T-cell responses” (Katholieke Universiteit Leuven, priority 2012, dated 2021) can be followed below.

The assay deals with hemagglutinin-loaded dendritic cells. The class given is cell-based, C57BL/6 mice.

As to CLAI YSTVASSLV LLV [SEQ ID NO:9], the “lysis of hemagglutinin-loaded dendritic cells (51Cr release)” value is recorded as “significant lysis”.
